What all share (assay type): cell-based
The target in assay [1] is T1, CDK1-NanoLuc fusion with CCNB1 in 293T or 293 cells (Homo sapiens, UniProt P06493).
T1 construct: host or cells: 293T (ATCC CRL-3216) or 293 (ATCC CRL-1573)
The experiment in a line: NanoBRET Target Engagement (TE) Intracellular Kinase Assay, CDK1/CCNB1. Particulars: NanoBRET TE intracellular kinase assay, 2-hour incubation, read-out: NanoBRET-CDK1/B1 IC50. Summed up: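 293T or 293 cells co-transfected with CDK1-NanoLuc and CCNB1 vectors, incubated 24 h, then exposed to NanoBRET Tracer K-10 plus compound for 2 h at 37° C. BRET ratio (610/450 nm) normalized to DMSO; IC50 from four-parameter logistic fit.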

Assay [2] concerns the target T2, CDK2-NanoLuc fusion with CCNE1 in 293T or 293 cells (Homo sapiens, UniProt P24941).
T2 construct: host or cells: 293T (ATCC CRL-3216) or 293 (ATCC CRL-1573)
Briefly: NanoBRET Target Engagement (TE) Intracellular Kinase Assay, CDK2/CCNE1. As to conditions: NanoBRET TE intracellular kinase assay, 2-hour incubation, read-out: NanoBRET-CDK2/E1 IC50. In general terms: Bioluminescence resonance energy transfer reports proximity on the nanometre scale.

Assay [3] deals with T3, CDK4-NanoLuc fusion with CCND1 in 293T or 293 cells (Homo sapiens, UniProt P11802).
T3 construct: host or cells: 293T (ATCC CRL-3216) or 293 (ATCC CRL-1573)
Briefly: NanoBRET Target Engagement (TE) Intracellular Kinase Assay, CDK4/CCND1. Particulars: NanoBRET TE intracellular kinase assay, 2-hour incubation, read-out: NanoBRET-CDK4/D1 IC50.

Assay [4] deals with Phospho-Rb Ser807/811 in OVCAR3 cells. The experiment in a line: OVCAR3 Phospho-Rb Ser807/811 HTRF assay. Particulars: Homo sapiens, OVCAR-3, 1 h, OVCAR3 cells, Phospho-Rb Ser807/811 HTRF, 1 hour incubation; read-out: pRb-OVCAR3 IC50. As to the method: Cells were trypsinized and resuspended in 1 mM hydroxyurea (Sigma; H8627), 90% RPMI and 10% fetal bovine serum. […] Dose response curve normalized to DMSO control was plotted using four-parameter logistic model for IC50 calculation.
(In general: In TR-FRET formats the signal depends on donor and acceptor labels being close together.)

T3 sequence (P11802 whole entry, the tested form may be a part): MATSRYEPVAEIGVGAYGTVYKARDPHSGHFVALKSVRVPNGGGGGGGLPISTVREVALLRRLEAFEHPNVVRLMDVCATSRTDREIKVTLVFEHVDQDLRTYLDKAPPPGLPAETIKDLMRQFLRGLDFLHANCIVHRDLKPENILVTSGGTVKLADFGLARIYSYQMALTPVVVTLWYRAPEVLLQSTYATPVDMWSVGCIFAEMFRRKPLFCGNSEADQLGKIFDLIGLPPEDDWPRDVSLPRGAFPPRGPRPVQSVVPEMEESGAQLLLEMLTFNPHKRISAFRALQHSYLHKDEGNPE
T3 sequence (P24385 whole entry partner, the tested form may be a part): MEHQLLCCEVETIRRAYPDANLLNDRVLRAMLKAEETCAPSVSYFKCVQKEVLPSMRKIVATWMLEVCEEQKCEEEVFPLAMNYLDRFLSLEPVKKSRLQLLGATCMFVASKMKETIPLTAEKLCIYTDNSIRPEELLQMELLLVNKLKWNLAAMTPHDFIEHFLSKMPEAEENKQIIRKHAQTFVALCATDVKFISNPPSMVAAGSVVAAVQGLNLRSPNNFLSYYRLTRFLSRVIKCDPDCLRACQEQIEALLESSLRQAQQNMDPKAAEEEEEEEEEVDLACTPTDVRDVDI
T1 sequence (P06493 whole entry, the tested form may be a part): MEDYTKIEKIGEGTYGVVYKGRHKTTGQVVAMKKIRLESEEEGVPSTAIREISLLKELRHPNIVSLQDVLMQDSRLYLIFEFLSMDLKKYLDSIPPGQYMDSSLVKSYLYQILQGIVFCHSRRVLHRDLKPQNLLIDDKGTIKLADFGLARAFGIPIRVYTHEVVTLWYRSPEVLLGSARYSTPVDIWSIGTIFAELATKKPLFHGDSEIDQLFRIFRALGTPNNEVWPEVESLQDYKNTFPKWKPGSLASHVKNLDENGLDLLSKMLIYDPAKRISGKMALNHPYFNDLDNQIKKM
T1 sequence (P14635 whole entry partner, the tested form may be a part): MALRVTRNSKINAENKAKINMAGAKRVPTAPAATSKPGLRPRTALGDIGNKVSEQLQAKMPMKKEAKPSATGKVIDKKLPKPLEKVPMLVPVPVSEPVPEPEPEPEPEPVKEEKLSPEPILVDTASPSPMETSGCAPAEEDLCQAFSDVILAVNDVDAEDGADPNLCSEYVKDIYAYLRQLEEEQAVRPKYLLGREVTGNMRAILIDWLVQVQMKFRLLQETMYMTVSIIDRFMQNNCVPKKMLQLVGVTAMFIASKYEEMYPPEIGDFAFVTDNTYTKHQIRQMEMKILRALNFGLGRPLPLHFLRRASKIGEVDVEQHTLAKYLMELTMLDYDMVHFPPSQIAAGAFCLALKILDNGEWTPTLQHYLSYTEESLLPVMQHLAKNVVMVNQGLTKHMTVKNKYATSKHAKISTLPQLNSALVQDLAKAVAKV

`COc1cc(O)c(C=O)c(OCC(=O)Nc2cc([C@H]3CC[C@@H](OC(=O)N4CCCC45CC5)C3)[nH]n2)c1` [Compound 232]: the IC50 in assay [1] came to 4.84 nM; in assay [2] it was 2.18 nM; in assay [3] it was 2300 nM; in assay [4], 40.2 nM.
Taken in the same sequence, the figures for `COc1cc(O)c(C=O)c(OCC(=O)Nc2cc([C@H]3CC[C@@H](OC(=O)N4CC[C@H](F)C4)C3)[nH]n2)c1` [Compound 233] were 2.19 nM, 2.47 nM, 2690 nM and 22.1 nM.
Turning to `COc1cc(O)c(C=O)c(OCC(=O)Nc2cc([C@H]3CC[C@@H](OC(=O)N4CC5CC(C4)O5)C3)[nH]n2)c1` [Compound 235], the IC50 in assay [1] was 48.5 nM; in assay [2], 7.6 nM; in assay [3], over 10000 nM; in assay [4], 121 nM.
Regarding `COc1cc(O)c(C=O)c(OCC(=O)Nc2cc([C@H]3CC[C@@H](OC(=O)N4CC[C@@H]5C[C@@H]54)C3)[nH]n2)c1` [Compound 236], the IC50 in assay [1] is 12.8 nM; in assay [2], 1.9 nM; in assay [3] it was 4250 nM; in assay [4], 32.2 nM.
Taken in the same sequence, the figures for `COc1cc(O)c(C=O)c(OCC(=O)Nc2cc([C@H]3CC[C@@H](OC(=O)N4CC5CC5C4)C3)[nH]n2)c1` (stereo partly drawn) [Compound 237] were 11.6 nM, 1.79 nM, 4960 nM and 55.7 nM.
In the same order, the values of `COc1cc(O)c(C=O)c(OCC(=O)Nc2cc([C@H]3CC[C@@H](OC(=O)N4CC[C@H](C)C4)C3)[nH]n2)c1` [Compound 238] are 9.82 nM, 1.64 nM, 4100 nM and 32.8 nM.
In the same order, the values of `COc1cc(O)c(C=O)c(OCC(=O)Nc2cc([C@H]3CC[C@@H](OC(=O)N4CCC4(C)C)C3)[nH]n2)c1` [Compound 239, (1R,3S)-3-(3-(2-(2-formyl-3-hydroxy-5-methoxyphenoxy)acetamido)-1H-pyrazol-5-yl)cyclopentyl 2,2-dimethylazetidine-1-carboxylate] are 2.14 nM, 1.89 nM, 846 nM and 13.1 nM.
For the compound `COc1cc(O)c(C=O)c(OCC(=O)Nc2cc([C@H]3CC[C@@H](OC(=O)N4CC[C@@H](F)C4)C3)[nH]n2)c1` [Compound 240], the IC50 in assay [1] stood at 7.4 nM; in assay [2], 1.54 nM; in assay [3], 2800 nM; in assay [4] it was 22.1 nM.
Taken in the same sequence, the figures for `COc1cc(O)c(C=O)c(OCC(=O)Nc2cc([C@@H]3CCC(OC(=O)N4CCCC4)C3)[nH]n2)c1` (stereo partly drawn) [Compound 241] were 22.9 nM, 3.05 nM, 3850 nM and 77.6 nM.
For the compound `COc1cc(O)c(C=O)c(OCC(=O)Nc2cc([C@H]3CC[C@@H](OC(=O)N4CC[C@H](OC)C4)C3)[nH]n2)c1` [Compound 242], the IC50 is 13.1 nM in assay [1], 5.05 nM in assay [2], over 10000 nM in assay [3] and 66.9 nM in assay [4].
In the case of `COc1cc(O)c(C=O)c(OCC(=O)Nc2cc([C@H]3CC[C@@H](OC(=O)N4CCCC4(C)C)C3)[nH]n2)c1` [Compound 243], the IC50 in assay [1] worked out at 2.41 nM; in assay [2], 2.23 nM; in assay [3] it was 484 nM; in assay [4], 17.6 nM.
In the same order, the values of `COc1cc(O)c(C=O)c(OCC(=O)Nc2cc([C@H]3CC[C@@H](OC(=O)N(C)C(C)C)C3)[nH]n2)c1` [Compound 244, (1R,3S)-3-{5-[2-(2-formyl-3-hydroxy-5-methoxyphenoxy)acetamido]-2H-pyrazol-3-yl}cyclopentyl N-isopropyl-N-methylcarbamate] are 4.17 nM, 1.42 nM, 1320 nM and 21.2 nM.
On to `COc1cc(O)c(C=O)c(OCC(=O)Nc2cc([C@H]3CC[C@@H](OC(=O)N4CCC[C@@H]4C)C3)[nH]n2)c1` [Compound 245], for which the IC50 in assay [1] worked out at 3.95 nM; in assay [2], 3.12 nM; in assay [3], 723 nM; in assay [4], 25.4 nM.
Taken in the same sequence, the figures for `COc1cc(O)c(C=O)c(OCC(=O)Nc2cc([C@H]3CC[C@@H](OC(=O)N4CCC(F)(F)C4)C3)[nH]n2)c1` [Compound 246] were 9.45 nM, 2.78 nM, 6110 nM and 33 nM.
With `COc1cc(O)c(C=O)c(OCC(=O)Nc2cc([C@@H]3CC[C@H](OC(=O)NC(C)C)C3)[nH]n2)c1` [Compound 247], the IC50 turned out to be 19.4 nM in assay [1], 15.8 nM in assay [2], 7210 nM in assay [3] and 101 nM in assay [4].
In the same order, the values of `CC(C)NC(=O)O[C@@H]1CC[C@H](c2cc(NC(=O)COc3cc(F)cc(O)c3C=O)n[nH]2)C1` [Compound 248] are 106 nM, 20.2 nM, 575 nM and 1950 nM.
In the same order, the values of `COc1cc(O)c(C=O)c(OCC(=O)Nc2cc([C@H]3CC[C@@H](OC(=O)NC45CC(C4)C5)C3)[nH]n2)c1` [Compound 249, (1R,3S)-3-{5-[2-(2-formyl-3-hydroxy-5-methoxyphenoxy)acetamido]-2H-pyrazol-3-yl}cyclopentyl N-{bicyclo[1.1.1]pentan-1-yl}carbamate] are 4.5 nM, 1.5 nM, 1190 nM and 26.6 nM.
In the same order, the values of `CC(C)NC(=O)O[C@@H]1CC[C@H](c2cc(NC(=O)COc3cc(OC(C)C)cc(O)c3C=O)n[nH]2)C1` [Compound 250] are 37.3 nM, 1.86 nM, 9240 nM and 65.8 nM.
As for `COc1cc(O)c(C=O)c(OCC(=O)Nc2cc([C@H]3CC[C@@H](OC(=O)NC4(C)CC4)C3)[nH]n2)c1` [Compound 251, (1R,3S)-3-(3-(2-(2-formyl-3-hydroxy-5-methoxyphenoxy)acetamido)-1H-pyrazol-5-yl)cyclopentyl (1-methylcyclopropyl)carbamate], the IC50 in assay [1] came to 4.13 nM; in assay [2], 1.22 nM; in assay [3] it was 966 nM; in assay [4], 15.1 nM.
Taken in the same sequence, the figures for `Cc1cc(O)c(C=O)c(O[C@@H](C)C(=O)Nc2cc([C@H]3CC[C@@H](OC(=O)NC(C)C)C3)[nH]n2)c1` [Compound 252] were 30.6 nM, 6.48 nM, 4090 nM and 326 nM.
In the same order, the values of `C#CCNC(=O)O[C@@H]1CC[C@H](c2cc(NC(=O)COc3cc(OC)cc(O)c3C=O)n[nH]2)C1` [Compound 253] are 18.4 nM, 2.65 nM, 5100 nM and 28.7 nM.
Taken in the same sequence, the figures for `COc1cc(O)c(C=O)c(OCC(=O)Nc2cc([C@H]3CC[C@@H](OC(=O)NC4(C)CCC4)C3)[nH]n2)c1` [Compound 254] were 2.8 nM, 2.28 nM, 778 nM and 21.4 nM.
With `COc1cc(O)c(C=O)c(OCC(=O)Nc2cc([C@H]3CC[C@@H](OC(=O)N4CCCC4)C3)[nH]n2)c1` [Compound 255, (1R,3S)-3-(3-(2-(2-formyl-3-hydroxy-5-methoxyphenoxy)acetamido)-1H-pyrazol-5-yl)cyclopentyl pyrrolidine-1-carboxylate], the IC50 turned out to be 10.9 nM in assay [1], 2.24 nM in assay [2], 4270 nM in assay [3] and 32.8 nM in assay [4].
Taken in the same sequence, the figures for `CC(C)NC(=O)O[C@@H]1CC[C@H](c2cc(NC(=O)COc3cc(-n4cccn4)cc(O)c3C=O)n[nH]2)C1` [Compound 257] were 703 nM, 10.5 nM, over 10000 nM and 2490 nM.
